Source: PubChem BioAssay (NCI)
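Five concentrations, 48 hours, 96-well plates. GI50 is the concentration that inhibits growth by half. TGI is the concentration that stops growth completely.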

What was measured:
Experiment in all cases: DTP human tumour cell line panel, 48 h
[1] = system: NCI-H522 lung
[2] = system: COLO 205 colon
[3] = system: OVCAR-3 ovarian
[4] = system: SF-268 CNS
[5] = system: NCI-H226 lung
[6] = system: OVCAR-5 ovarian
[7] = system: NCI/ADR-RES ovarian
[8] = system: HCC-2998 colon
[9] = system: SF-295 CNS
[10] = system: LOX IMVI melanoma

| Structure (SMILES) | GI50 [1] | TGI [1] | GI50 [2] | TGI [2] | GI50 [3] | TGI [3] | GI50 [4] | TGI [4] | GI50 [5] | TGI [5] | GI50 [6] | TGI [6] | GI50 [7] | TGI [7] | GI50 [8] | TGI [8] | GI50 [9] | TGI [9] | GI50 [10] | TGI [10] |
| --- | --- | --- | --- | --- | --- | --- | --- | --- | --- | --- | --- | --- | --- | --- | --- | --- | --- | --- | --- | --- |
| c1ccc(-c2nn3c(c2-c2ccnc4cc(OCCN5CCOCC5)ccc24)CCC3)nc1 | 44.8 µM | > 100 µM | 41.6 µM | > 100 µM | > 69.9 µM | > 100 µM | > 77.1 µM | > 100 µM | > 81.2 µM | > 100 µM | 72.1 µM | > 100 µM | 52.4 µM | > 100 µM | > 100 µM | > 100 µM | > 100 µM | > 100 µM | > 45.6 µM | > 100 µM |
| O=[N+]([O-])/C=C/c1c(Cl)cccc1Cl | – | 5.95 µM | – | 1.76 µM | – | 3.28 µM | – | 28.2 µM | – | 50.6 µM | – | 16.2 µM | – | 12.5 µM | – | 8.34 µM | – | 14.5 µM | – | 3.16 µM |
| OCCCCC#Cc1ccccc1C#Cc1ccc(O)cc1 | 13.8 µM | 28.8 µM | 21.6 µM | 45.9 µM | 14.8 µM | 30.4 µM | 16 µM | 41.7 µM | 18.3 µM | 39.1 µM | 16.5 µM | 35.2 µM | 17.3 µM | 35.2 µM | 15.4 µM | 30.4 µM | 16.2 µM | 32 µM | 13.6 µM | 27.7 µM |
| COc1ccc(-c2c(C)c(C(=O)O)nc(-c3ccc4c(O)c(OC)c5c(c4n3)=NC(C)(C)N=5)c2N)c(O)c1OC | – | 24.5 µM | – | 77.1 µM | – | 43.2 µM | – | 21.6 µM | – | 63.1 µM | – | > 100 µM | – | 58 µM | – | 35.7 µM | – | 38.6 µM | – | 25.7 µM |
| O=[N+]([O-])c1cc[n+]([O-])c2ccccc12 | 0.214 µM | 0.754 µM | 0.153 µM | 0.488 µM | 0.197 µM | 0.471 µM | 0.282 µM | 1.24 µM | 0.311 µM | 1.38 µM | 2.42 µM | 6.1 µM | 0.965 µM | 4.86 µM | 0.347 µM | 0.8 µM | 0.2 µM | 0.627 µM | 0.156 µM | 0.418 µM |
| COc1ccc(/C=C(/c2ccccc2)[N+](=O)[O-])c(OC)c1 | 1.56 µM | 4.02 µM | 2.04 µM | 4.28 µM | 1.69 µM | 3.09 µM | 1.65 µM | 3.14 µM | 1.95 µM | 4.49 µM | 1.92 µM | 3.74 µM | 1.72 µM | 5.63 µM | 1.92 µM | 3.4 µM | 1.97 µM | 3.86 µM | 0.399 µM | 1.63 µM |
| Cc1ccc(S(=O)(=O)Oc2ccc3c4c(c(=O)oc3c2)CCCCCC4)cc1 | > 100 µM | > 100 µM | 2.92 µM | > 100 µM | > 100 µM | > 100 µM | > 100 µM | > 100 µM | 8.31 µM | > 100 µM | > 100 µM | > 100 µM | 5.08 µM | > 100 µM | > 100 µM | > 100 µM | > 100 µM | > 100 µM | > 100 µM | > 100 µM |
| COc1c(C(C)=O)c(OCCCCOc2c(C(C)=O)c(OC)c3ccoc3c2OC)c(OC)c2occc12 | 2.63 µM | > 100 µM | 4.35 µM | > 100 µM | 3.75 µM | > 100 µM | > 42.1 µM | > 100 µM | – | > 100 µM | > 100 µM | > 100 µM | 1.61 µM | 4.92 µM | > 100 µM | > 100 µM | 1.35 µM | > 100 µM | 4.81 µM | > 100 µM |
| CCC(=O)N1C/C(=C/c2ccc(Cl)cc2)C(=O)/C(=C/c2ccc(Cl)cc2)C1 | 0.973 µM | 2.4 µM | 0.757 µM | 1.95 µM | 0.622 µM | 1.75 µM | 1.17 µM | 3.16 µM | 1.15 µM | 3.5 µM | 1.48 µM | 3 µM | 1.79 µM | 12.2 µM | 0.735 µM | 1.82 µM | 0.514 µM | 2.09 µM | 0.161 µM | 0.354 µM |
| CCOc1ccc2c(-c3ccnc(Nc4cc(OC)cc(C(F)(F)F)c4)n3)cnn2n1 | 1.85 µM | > 10.9 µM | > 25 µM | > 25 µM | 6.2 µM | > 25 µM | > 18.9 µM | > 25 µM | > 25 µM | > 25 µM | > 25 µM | > 25 µM | 4.66 µM | > 25 µM | > 25 µM | > 25 µM | > 14.6 µM | > 25 µM | 15.7 µM | > 25 µM |
| Cc1cn2c(/C=C3/C(=O)Nc4c3ccc3ccccc43)c(C(F)(F)F)nc2s1 | 0.584 µM | > 100 µM | 0.398 µM | 1.9 µM | 0.381 µM | 10.2 µM | 3.22 µM | > 100 µM | 17.9 µM | > 100 µM | 9.99 µM | > 100 µM | 0.456 µM | > 100 µM | 3.23 µM | > 100 µM | 0.494 µM | > 100 µM | 1.07 µM | 21.1 µM |
| Fc1ccc(-c2ncn(C3CCNCC3)c2-c2ccnc(Oc3ccc4c(c3)OCO4)n2)cc1 | > 25 µM | > 25 µM | 9.25 µM | > 25 µM | > 25 µM | > 25 µM | 24.4 µM | > 25 µM | > 17 µM | > 25 µM | > 25 µM | > 25 µM | > 25 µM | > 25 µM | 11.9 µM | > 25 µM | > 20.1 µM | > 25 µM | 12.3 µM | > 25 µM |
| CN(C)C(=O)Nc1nc2cc(Cl)c(Cl)cc2[nH]1 | 0.38 µM | 4.14 µM | 0.661 µM | 5.08 µM | 0.393 µM | 1.94 µM | 2.89 µM | > 100 µM | 2.83 µM | > 100 µM | 19.8 µM | > 100 µM | 0.507 µM | 9.37 µM | 2.5 µM | > 47.1 µM | 0.603 µM | 39.1 µM | 1.87 µM | > 100 µM |
